In patent US5162538A, “Antiviral new peptides” (Bayer Aktiengesellschaft, priority 1989, dated 1992):
pIC50: −log10 of the molar value.

Columns and labels:
[1] = molecular target: T1, HIV protease (Human immunodeficiency virus type 1 group M subtype B, UniProt P04585); assay: HIV-specific protease enzyme test (RP-HPLC analysis of synthetic peptide cleavage); format: biochemical; settings: purified HIV protease incubated with synthetic peptide imitating a Gag-precursor cleavage site; 50% inhibition of protease activity
T1 construct: purified HIV protease was incubated with synthetic peptide
Experimental: The compounds of the general formula (I) have extraordinarily strong action against retroviruses. This was proven by experiments using the HIV-specific protease enzyme test.
The result of the example below was obtained using the HIV-test system described in the following reference [cf. Hansen, J., Billich, S., Schulze, T., Sukrow, S. and Molling, K. (1988), EMBO Journal, Vol. 7, No. 6, pp. 1785-1791]: purified HIV protease was incubated with synthetic peptide which imitates a cleavage site in the Gag-precursor protein and represents an in vivo cleavage site of HIV protease. The resulting cleavage products of the synthetic peptide were analyzed by reverse-phase high performance liquid chromatography (RP-HPLC). The IC50 value relates to the substance concentration which causes 50% inhibition of protease activity under the abovementioned test conditions.

[2] = test system: Visna virus; assay: Visna virus test in infected cell culture (cytopathic effect); format: cell-based; settings: sheep fibroblast cells infected with Visna virus, MOI approx. 0.05, 7 days at 37° C., non-cytotoxic concentrations
Experimental: This was shown by way of example for the Visna virus.
The Visna virus and the HIV virus both belong to the retrovirus subfamily of lentiviruses.
In cell cultures which are infected with Visna virus, pronounced, virus-induced, cytopathic effects appear 5 to 10 days after infection. By treating the infected cell cultures with compounds according to the invention, it was possible to prevent the appearance of these cytopathic effects.
The Visna virus test was carried out according to the method of O. Narayan et al., Journal of Infectious Diseases 135, 5, 1977, 800-806. For this, a compound according to the invention was diluted to non-cytotoxic concentrations in the culture medium in 96-well microtiter plates. Sheep fibroblast cells (5×10^4 cells per well) in production medium were then added to each well. Each well then received 15 μl of a Visna virus solution having a titer of approx. 2.5×10^4 TCID50 (TCID=tissue culture infections dose). This virus dose corresponds to a MOI (multiplicity of infection) of approx. 0.05.
Under these infection conditions, a virus-induced, cytopathic effect resulted between day 5 and day 10 in an infection control without substance. The infected and treated cells and the control cells were incubated for 7 days at 37° C. and 5% CO2. […]

## Nα-{Nδ-[1-(1-oxo)ethyl-[1-(5-S-amino-6-cyclohexyl-4-S-hydroxy-2-(1-methyl)ethylhexanoyl)]]-S-isoleucinyl}-2-pyridylmethylamide [Example I]
[1]
  pIC50: 9.30
[2]
  protection from virus-induced cytopathic effect / cell destruction: protected the cells infected with Visna virus from the virus-induced cell destruction
